Values of other authors in PMC9762682, “Tocotrienols: Exciting Biological and Pharmacological Properties of Tocotrienols and Naturally Occurring Compounds, Part II” (Annals of clinical case reports, 2022).
Where two headings read alike, the source gives them in different places. Marks after values point to notes of the source that are not given here.

How the values were obtained:
[1] = parameters: method as in ref 16 = [16]; PMID 27493840; doi:10.4172/2155-9880.1000434; 16. Qureshi AA , Khan DA , Silswal N , Saleem S , Qureshi N . Evaluation of pharmacokinetics and bioavailability of higher doses of δ-tocotrienol in healthy fed humans . J Clin Exp Cardiol . 2016; 7
[2] = parameters: method as in ref 14 = [14]; PMID 27493840; doi:10.4172/2155-9880.1000434; 14. Qureshi AA , Khan DA , Saleem S , Silswal N , Trias AM , Tan B , Pharmacokinetics and bioavailability of Annatto δ-tocotrienol in healthy fed subjects . J Clin Exp Cardiol . 2015; 6 : 11 . 10.417; settings: for time of appearance in the plasma: after δ-tocotrienol administration to well-fed subjects; for Elimination of Half-life time (t1/2) / Elimination rate constant (ke) / Plasma Peak Concentration (Cmax) / Time to achieve plasma peak (Tmax): healthy fed subjects
[3] = 0 Hr., single dose 750 mg δ-tocotrienol
[4] = 0 Hr., single dose 1000 mg δ-tocotrienol
[5] = 1 hr., single dose 750 mg δ-tocotrienol
[6] = 1 hr., single dose 1000 mg δ-tocotrienol
[7] = 2 hr., single dose 750 mg δ-tocotrienol
[8] = 2 hr., single dose 1000 mg δ-tocotrienol
[9] = 4 hr., single dose 750 mg δ-tocotrienol
[10] = 4 hr., single dose 1000 mg δ-tocotrienol
[11] = 6 hr., single dose 750 mg δ-tocotrienol
[12] = 6 hr., single dose 1000 mg δ-tocotrienol
[13] = 8 hr., single dose 750 mg δ-tocotrienol
[14] = 8 hr., single dose 1000 mg δ-tocotrienol
[15] = single dose 750 mg δ-tocotrienol
[16] = single dose 1000 mg δ-tocotrienol
[17] = plasma tocol after single 125 mg δ-tocotrienol dose
[18] = plasma tocol after single 250 mg δ-tocotrienol dose
[19] = plasma tocol after single 500 mg δ-tocotrienol dose
[20] = plasma tocol after single dose 750 mg δ-tocotrienol
[21] = plasma tocol after single dose 1000 mg δ-tocotrienol

For `Cc1cc(O)cc2c1O[C@](C)(CCC[C@H](C)CCC[C@H](C)CCCC(C)C)CC2` [δ-Tocopherol], the plasma tocol level [1, 3] is listed as 894 ± 69 ng/mL, the plasma tocol level [1, 4] is listed as 888 ± 22 ng/mL and the plasma tocol level [1, 5] is listed as 949 ± 11 ng/mL. For the same compound, the plasma tocol level [1, 6] was 986 ± 18 ng/mL, the plasma tocol level [1, 7] was 1195 ± 69 ng/mL and the plasma tocol level [1, 8] was 1266 ± 25 ng/mL. For the same compound, the plasma tocol level [1, 9] was 1348 ± 93 ng/mL, the plasma tocol level [1, 10] was 1473 ± 71 ng/mL and the plasma tocol level [1, 11] was 726 ± 51 ng/mL. The plasma tocol level [1, 12] was 765 ± 44 ng/mL, the plasma tocol level [1, 13] was 432 ± 45 ng/mL and the plasma tocol level [1, 14] was 500 ± 25 ng/mL. For the same compound, the “Total tocols (sum of 0-8 h)” value [1, 15] was 5544 ng/mL, the “Total tocols (sum of 0-8 h)” value ([1]; single dose 750 mg δ-tocotrienol, listed as δ-tocopherol) was 13117 ng/mL and the “Total tocols (sum of 0-8 h)” value [1, 16] was 5878 ng/mL. The “time of appearance in the plasma” value [2] was greater than 2 h, the “Elimination of Half-life time (t1/2)” value [2, 17] was 3.25 ± 0.79^a h and the “Elimination rate constant (ke)” value [2, 17] was 0.118 ± 0.032^a h-1. For the same compound, the “Plasma Peak Concentration (Cmax)” value [2, 17] was 341.18 ± 62.19^a ng/mL, the “Time to achieve plasma peak (Tmax)” value [2, 17] was 6.00 h and the “Elimination of Half-life time (t1/2)” value [2, 18] was 5.22 ± 0.62^b h. For the same compound, the “Elimination rate constant (ke)” value [2, 18] was 0.076 ± 0.008^b h-1, the “Plasma Peak Concentration (Cmax)” value [2, 18] was 756.27 ± 72.70^b ng/mL and the “Time to achieve plasma peak (Tmax)” value [2, 18] was 4.18 ± 0.60 h. For the same compound, the “Elimination of Half-life time (t1/2)” value [2, 19] was 3.58 ± 0.67^a h, the “Elimination rate constant (ke)” value [2, 19] was 0.183 ± 0.027^c h-1 and the “Plasma Peak Concentration (Cmax)” value [2, 19] was 1027.73 ± 71.93^c ng/mL. The “Time to achieve plasma peak (Tmax)” value [2, 19] was 3.00 h.
For `CC(C)=CCC/C(C)=C/CC/C(C)=C/CC[C@]1(C)CCc2cc(O)c(C)c(C)c2O1` [γ-Tocotrienol], the plasma tocol level [1, 3] is listed as 795 ± 19 ng/mL, the plasma tocol level [1, 4] is listed as 843 ± 13 ng/mL and the plasma tocol level [1, 5] is listed as 1035 ± 10 ng/mL. For the same compound, the plasma tocol level [1, 6] was 1065 ± 7 ng/mL, the plasma tocol level [1, 7] was 1183 ± 16 ng/mL and the plasma tocol level [1, 8] was 1251 ± 32 ng/mL. The plasma tocol level [1, 9] was 1352 ± 23 ng/mL, the plasma tocol level [1, 10] was 1387 ± 10 ng/mL and the plasma tocol level [1, 11] was 361 ± 74 ng/mL. For the same compound, the plasma tocol level [1, 12] was 484 ± 17 ng/mL, the plasma tocol level [1, 13] was 329 ± 17 ng/mL and the plasma tocol level [1, 14] was 374 ± 27 ng/mL. The “Area Under the Curve-t0 - ∞ (AUC0-∞)” value [1, 20] was 7895.14 ± 73.43^b ng/ml, the “Elimination of Half-life time (t1/2)” value [1, 20] was 1.96 ± 0.06^b h and the “Elimination rate constant (ke)” value [1, 20] was 0.353 ± 0.125^a h-1. For the same compound, the “Peak Plasma Concentration (Cmax)” value [1, 20] was 1352.41 ± 28.14^b ng/ml, the “Time to achieve plasma peak (Tmax)” value [1, 20] was 4.00^a h and the “Area Under the Curve-t0 - ∞ (AUC0-∞)” value [1, 21] was 8626.41 ± 277.17^b ng/ml. For the same compound, the “Elimination of Half-life time (t1/2)” value [1, 21] was 2.12 ± 0.14^b h, the “Elimination rate constant (ke)” value [1, 21] was 0.328 ± 0.286^a h-1 and the “Time to achieve plasma peak (Tmax)” value [1, 21] was 4.00^a h. For the same compound, the “Total tocols (sum of 0-8 h)” value [1, 15] was 5055 ng/mL, the “Total tocols (sum of 0-8 h)” value [1, 16] was 5404 ng/mL and the “time of appearance in the plasma” value [2] was greater than 2 h. The “Elimination of Half-life time (t1/2)” value [2, 17] was 3.82 ± 0.99^a h, the “Elimination rate constant (ke)” value [2, 17] was 0.113 ± 0.026^a h-1 and the “Plasma Peak Concentration (Cmax)” value [2, 17] was 281.34 ± 21.22^a ng/mL. The “Time to achieve plasma peak (Tmax)” value [2, 17] was 3.00 h, the “Elimination rate constant (ke)” value [2, 18] was 0.133 ± 0.037^a h-1 and the “Time to achieve plasma peak (Tmax)” value [2, 18] was 3.00 h. For the same compound, the “Elimination of Half-life time (t1/2)” value [2, 19] was 2.25 ± 0.32^c h, the “Elimination rate constant (ke)” value [2, 19] was 0.097 ± 0.021^b h-1 and the “Plasma Peak Concentration (Cmax)” value [2, 19] was 1224.64 ± 61.28^c ng/mL. For the same compound, the “Time to achieve plasma peak (Tmax)” value [2, 19] was 3.55 ± 0.52 h.
